This note sets out measurements from patent US12521388B2, “Substituted dipyrido[1,2-a:1′,2′-d]pyrazines for treating viral infections” (Gilead Sciences, Inc., priority 2013, dated 2026).

Where two headings read alike, the source gives them in different places.

Series [1] in a line: Cytotoxicity in MT4 cells (mock-infected) in the antiviral assay. Type of series: cell-based. The settings on record: human. On the procedure:
(§1) For the antiviral assay utilizing MT4 cells, 0.4 μL of […] test concentration of 3-fold serially diluted compound in DMSO was added to 40 μL of cell growth medium (RPMI 1640, 10% FBS, 1% penicilline/Streptomycine, 1% L-Glutamine, 1% HEPES) in each well of 384-well assay plates (10 concentrations) in quidruplicate. 1 mL aliquots of 2×10^6 MT4 cells are pre-infected for 1 and 3 hours respectively at 37° C. with 25 μL (MT4) or of either cell growth medium (mock-infected) or a fresh 1:250 dilution of an HIV-IIIb concentrated ABI stock (0.004 m.o.i. for MT4 cells). Infected and uninfected cells are diluted in cell growth medium and 35 μL of 2000 (for MT4) cells is added to each well of the assay plates. Assay plates were then incubated in a 37° C. incubator. After 5 days of incubation, 25 μL of 2× concentrated CellTiter-Glo™ Reagent (catalog #G7573, Promega Biosciences, Inc., Madison, WI) was added to each well of the assay plate. Cell lysis was carried out by incubating at room temperature for 2-3 minutes, and then chemiluminescence was read using the Envision reader (PerkinElmer).

In another series the test system is HIV-IIIb. Nature of the series: Antiviral assay in MT4 cells. The following applies: Human immunodeficiency virus 1, 120 h; MT4 cells infected with HIV-IIIb (0.004 m.o.i.), 5 days incubation, CellTiter-Glo; average over time; read-out: EC50 nM in MT-4. Type of series: cell-based. As for the experimental part: as §1
On the technique in general: ATP-based viability assays read luminescence as a measure of living cells.

The mark [2] stands for this setting: MT4 cells (mock-infected), MT4 cells, 5 days incubation, CellTiter-Glo, average over time, read-out: CC50 nM in MT-4.

`O=C(NCc1ccc(F)cc1F)c1cn2c(c(O)c1=O)C(=O)N1C3CCC1(CC3)C2` [Compound 3] registered a CC50 at 5 days in series [1] of 26200 nM. Also, in the series with HIV-IIIb, the EC50 was 1.9 nM.

On to `O=C(NCc1c(F)cc(F)cc1F)c1cn2c(c(O)c1=O)C(=O)N1C3CCC1(CC3)C2` [Compound 15], for which the CC50 at 5 days in series [1] (setting [2]) is 24000 nM. In addition, the EC50 in the series on HIV-IIIb came out at 2.3 nM.

For `O=C(NCc1ccc(F)cc1F)c1cn2c(c(O)c1=O)C(=O)N1C[C@H]3CC[C@@]1(CC3)C2` [Compound 2], in series [1] (setting [2]), the CC50 at 5 days was found to be 53200 nM. Besides, the EC50 with HIV-IIIb came out at 4.4 nM.

Turning to `O=C(NCc1ccc(F)cc1F)c1cn2c(c(O)c1=O)C(=O)N1C[C@H]3CCC[C@@]1(C3)C2` [Compound 6], the 50% cytotoxic concentration (CC50) at 5 days in series [1] (setting [2]) worked out at 9660 nM. Further, the EC50 in the series with HIV-IIIb was 2.6 nM.

`O=C(NCc1c(F)cc(F)cc1F)c1cn2c(c(O)c1=O)C(=O)N1C[C@@H]3CCC[C@]1(C3)C2` [Compound 5]: in series [1] (setting [2]), the CC50 at 5 days came to 10600 nM. Moreover, in the series with HIV-IIIb, the EC50 amounted to 1.3 nM.

`O=C(NCc1ccc(F)cc1F)c1cn2c(c(O)c1=O)C(=O)N1C[C@@H]3CCC[C@]1(C3)C2` [Compound 4]: the 50% cytotoxic concentration (CC50) at 5 days in series [1] (setting [2]) was determined as 11000 nM. The EC50 in the series with HIV-IIIb is 1.6 nM.

`O=C(NCc1ccc(F)cc1F)c1cn2c(c(O)c1=O)C(=O)N1C[C@H]3C[C@]1(C2)C3` [Compound 1]: in series [1] (setting [2]), the CC50 at 5 days came out at 49900 nM. In addition, the EC50 with HIV-IIIb was found to be 3.5 nM.

In the case of `O=C(NCc1c(F)cc(F)cc1F)c1cn2c(c(O)c1=O)C(=O)N1C[C@H]3CC[C@@]1(C3)C2` [Compound 12], in series [1] (setting [2]), the CC50 at 5 days is 53200 nM. Also, in the series on HIV-IIIb, the EC50 amounted to 3.2 nM.

On to `O=C(NCc1ccc(F)cc1F)c1cn2c(c(O)c1=O)C(=O)N1C[C@@H]3CC[C@]1(C3)C2` [Compound 10, (3R,12aS)—N-(2,4-difluorobenzyl)-7-hydroxy-6,8-dioxo-2,3,4,6,8,12-hexahydro-1H-3,12a-methanodipyrido[1,2-a:1′,2′-d]pyrazine-9-carboxamide], for which the CC50 at 5 days in series [1] (setting [2]) was 24000 nM. Moreover, the 50% effective concentration (EC50) with HIV-IIIb was 2.3 nM.

Turning to `O=C(NCc1c(F)cc(F)cc1F)c1cn2c(c(O)c1=O)C(=O)N1C[C@H]3CCC[C@@]1(C3)C2` [Compound 7], in series [1] (setting [2]), the CC50 at 5 days amounted to 13000 nM. The EC50 in the series on HIV-IIIb was 2.8 nM.

Take `O=C(NCc1cccc(Cl)c1F)c1cn2c(c(O)c1=O)C(=O)N1C[C@H]3CCC[C@@]1(C3)C2` [Compound 8]: in series [1] (setting [2]), the CC50 at 5 days was 5300 nM. Moreover, the EC50 in the series with HIV-IIIb came out at 2.3 nM.

Regarding `O=C(NCc1ccc(F)cc1F)c1cn2c(c(O)c1=O)C(=O)N1C[C@H]3CC[C@@]1(C3)C2` [Compound 11], in series [1] (setting [2]), the cytotoxic concentration (CC50) at 5 days stood at 27900 nM. Moreover, the EC50 with HIV-IIIb turned out to be 3.2 nM.

Turning to `C[C@@H](NC(=O)c1cn2c(c(O)c1=O)C(=O)N1C3CCC1(CC3)C2)c1c(F)cc(F)cc1F` [Compound 14], the 50% cytotoxic concentration (CC50) at 5 days in series [1] (setting [2]) was determined as 13200 nM. Besides, in the series with HIV-IIIb, the EC50 came out at 6.2 nM.

Regarding `O=C(NCc1c(F)cc(F)cc1F)c1cn2c(c(O)c1=O)C(=O)N1C[C@@H]3CC[C@]1(C3)C2` [Compound 13], the CC50 at 5 days in series [1] (setting [2]) is 24300 nM. Moreover, the 50% effective concentration (EC50) in the series on HIV-IIIb stood at 1.7 nM.

As to `C[C@@]12CCC[C@]3(Cn4cc(C(=O)NCc5c(F)cc(F)cc5F)c(=O)c(O)c4C(=O)N3C1)C2` [Compound 9], the CC50 at 5 days in series [1] (setting [2]) is 8660 nM. For the same compound, in the series on HIV-IIIb, the EC50 amounted to 1.4 nM.

By CC50 is commonly meant the concentration that lowers cell viability or growth by half. The EC50 is the midpoint of the concentration-response curve.
